Experimental findings from patent US11008572B2, “Methods and compositions for modulating splicing” (SKYHAWK THERAPEUTICS, INC., priority 2017, dated 2021) are described below.

For assay [1], the system named is FOXM1^A2 mRNA and FOXM1^BC mRNA. In words: Splicing assay (FOXM1), qPCR of isoform mRNAs. The class given is cell-based. Particulars: 0.1-1000 nM, 24 hours; for IC50: 24 h, FoxM1 BC mRNA decrease (exon included), read-out: Splice IC50 (nM), FoxM1 BC mRNA decrease (exon included); for EC50: FoxM1 A mRNA increase (exon excluded), read-out: Splice EC50 (nM), FoxM1 A mRNA increase (exon excluded). In outline:
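RT-qPCR read-out after 24 h compound exposure at 37° C., 0.2% DMSO, top dose 10 μM with 4-fold 8-point dilutions, 20,000 cells per well. Copy numbers from plasmid standard curves, PPIA-normalized, expressed as isoform ratio relative to DMSO.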
Background: Quantitative PCR measures a nucleic acid by following its amplification.

A further assay has as its system A-673 cells. Put plainly: Cell viability, crystal violet staining. Type of assay: cell-based. Particulars: Homo sapiens, A673, cell viability, read-out: A-673 IC50 (nM), Cell viability. In outline:
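Readout is absorbance at 570 nm of crystal violet, taken up in 0.1 M sodium citrate in 50% ethanol after staining with 0.5% dye in 25% methanol. Plates held 5×10^3 cells per well, and compounds were added one day after seeding for 72 hours. Data are relative to vehicle, mean±SE.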

In general, IC50 refers to the concentration that inhibits the measured activity by half. For orientation: EC50 means the concentration that produces a half-maximal response. For `Cc1cn(-c2ccc(-c3ccc(N(C)[C@@H]4C[C@H]5CC[C@@H](C4)N5)nn3)c(O)c2)c(C)n1` [compound 231, 2-(6-(((1R,3s,5S)-8-azabicyclo[3.2.1]octan-3-yl)(methyl)amino)pyridazin-3-yl)-5-(2,4-dimethyl-1H-imidazol-1-yl)phenol], in assay [1], the IC50 fell in the range of 501 to 1000 nM and the EC50 lay in the range of 251 to 500 nM. Moreover, in the assay with A-673 cells, the IC50 was over 1000 nM.
For the compound `CN(c1ccc(-c2ccc(-c3nnc(C(F)(F)F)o3)cc2O)nn1)[C@@H]1C[C@H]2CC[C@@H](C1)N2` [compound 232, 2-(6-(((1R,3s,5S)-8-azabicyclo[3.2.1]octan-3-yl)(methyl)amino)pyridazin-3-yl)-5-(5-(trifluoromethyl)-1,3,4-oxadiazol-2-yl)phenol], the IC50 in assay [1] is 501 to 1000 nM; with A-673 cells, over 1000 nM. The EC50 in assay [1] is 101 to 250 nM.
Take `Cc1nnn(-c2ccc(-c3ccc(N(C)[C@@H]4C[C@H]5CC[C@@H](C4)N5)nn3)c(O)c2)n1` [compound 234, 2-(6-(((1R,3s,5S)-8-azabicyclo[3.2.1]octan-3-yl)(methyl)amino)pyridazin-3-yl)-5-(5-methyl-2H-tetrazol-2-yl)phenol]: the IC50 (in assay [1]; in the assay with A-673 cells) was 10 to 100 nM throughout. Moreover, the EC50 in assay [1] was in the range of 10 to 100 nM.
For the compound `Cc1ccc(-c2ccc(-c3ccc(N(C)[C@@H]4C[C@H]5CC[C@@H](C4)N5)nn3)c(O)c2)nn1` [compound 239, 2-(6-(((1R,3s,5S)-8-azabicyclo[3.2.1]octan-3-yl)(methyl)amino)pyridazin-3-yl)-5-(6-methylpyridazin-3-yl)phenol], the IC50 in assay [1] is under 10 nM; in the assay on A-673 cells, 251 to 500 nM. The EC50 in assay [1] was under 10 nM.
`CN(c1ccc(-c2ccc(-c3ccc(=O)n(C)c3)cc2O)nn1)[C@@H]1C[C@H]2CC[C@@H](C1)N2` [compound 241, 5-(4-(6-(((1R,3s,5S)-8-azabicyclo[3.2.1]octan-3-yl)(methyl)amino)pyridazin-3-yl)-3-hydroxyphenyl)-1-methylpyridin-2(1H)-one]: in assay [1], the IC50 fell in the range of 10 to 100 nM and the EC50 is under 10 nM. Besides, in the assay on A-673 cells, the IC50 fell in the range of 101 to 250 nM.
The like results for `CN(c1ccc(-c2ccc(-n3cnc(C(F)(F)F)c3)cc2O)nn1)[C@@H]1C[C@H]2CC[C@@H](C1)N2` [compound 242, 2-(6-(((1R,3s,5S)-8-azabicyclo[3.2.1]octan-3-yl)(methyl)amino)pyridazin-3-yl)-5-(4-(trifluoromethyl)-1H-imidazol-1-yl)phenol] were, in that order, 101 to 250 nM, 10 to 100 nM and 251 to 500 nM.
The like results for `CN(c1ccc(-c2ccc(-n3cncn3)cc2O)nn1)[C@@H]1C[C@H]2CC[C@@H](C1)N2` [compound 243] were, in that order, 10 to 100 nM, under 10 nM and 10 to 100 nM.
The corresponding values for `Cc1cn(-c2ccc(-c3ccc(O[C@@H]4C[C@H]5CC[C@@H](C4)N5)nn3)c(O)c2)cn1` [compound 246, 2-(6-(((1R,3s,5S)-8-azabicyclo[3.2.1]octan-3-yl)oxy)pyridazin-3-yl)-5-(4-methyl-1H-imidazol-1-yl)phenol] are 101 to 250 nM, 10 to 100 nM and 251 to 500 nM.
As for `Cc1cnn(-c2ccc(-c3ccc(O[C@@H]4C[C@H]5CC[C@@H](C4)N5)nn3)c(O)c2)c1` [compound 249, 2-(6-(((1R,3s,5S)-8-azabicyclo[3.2.1]octan-3-yl)oxy)pyridazin-3-yl)-5-(4-methyl-1H-pyrazol-1-yl)phenol], the IC50 in assay [1] was in the range of 251 to 500 nM; with A-673 cells, 501 to 1000 nM. In addition, the EC50 in assay [1] lay in the range of 101 to 250 nM.
Regarding `Cc1ccn(-c2ccc(-c3ccc(O[C@@H]4C[C@H]5CC[C@@H](C4)N5)nn3)c(O)c2)n1` [compound 250, 2-(6-(((1R,3s,5S)-8-azabicyclo[3.2.1]octan-3-yl)oxy)pyridazin-3-yl)-5-(3-methyl-1H-pyrazol-1-yl)phenol], in assay [1], the IC50 was in the range of 101 to 250 nM and the EC50 lay in the range of 10 to 100 nM. Further, the IC50 in the assay on A-673 cells is 501 to 1000 nM.
The like results for `Oc1cc(-n2ccnn2)ccc1-c1ccc(O[C@@H]2C[C@H]3CC[C@@H](C2)N3)nn1` [compound 252, 2-(6-(((1R,3s,5S)-8-azabicyclo[3.2.1]octan-3-yl)oxy)pyridazin-3-yl)-5-(1H-1,2,3-triazol-1-yl)phenol] were, in that order, 251 to 500 nM, 101 to 250 nM and 501 to 1000 nM.
The corresponding values for `Oc1cc(-c2nnn[nH]2)ccc1-c1ccc(O[C@@H]2C[C@H]3CC[C@@H](C2)N3)nn1` [compound 254, 2-(6-(((1R,3s,5S)-8-azabicyclo[3.2.1]octan-3-yl)oxy)pyridazin-3-yl)-5-(1H-tetrazol-5-yl)phenol] are over 1000 nM, over 1000 nM and over 1000 nM.
Turning to `Cc1ncc(-c2ccc(-c3ccc(O[C@@H]4C[C@H]5CC[C@@H](C4)N5)nn3)c(O)c2)o1` [compound 255, 2-(6-(((1R,3s,5S)-8-azabicyclo[3.2.1]octan-3-yl)oxy)pyridazin-3-yl)-5-(2-methyloxazol-5-yl)phenol], in assay [1], the IC50 lay within 101 to 250 nM and the EC50 lay within 101 to 250 nM. The 50% inhibitory concentration (IC50) in the assay with A-673 cells was in the range of 501 to 1000 nM.
As to `Cc1cc(-c2ccc(-c3ccc(O[C@@H]4C[C@H]5CC[C@@H](C4)N5)nn3)c(O)c2)on1` [compound 256, 2-(6-(((1R,3s,5S)-8-azabicyclo[3.2.1]octan-3-yl)oxy)pyridazin-3-yl)-5-(3-methylisoxazol-5-yl)phenol], in assay [1], the IC50 was over 1000 nM and the EC50 was over 1000 nM. Further, the IC50 in the assay on A-673 cells was over 1000 nM.
For the compound `CN(c1ccc(-c2ccc(-n3nccn3)cc2O)nn1)[C@@H]1C[C@H]2CCC[C@@H](C1)N2` [compound 275, 2-(6-(((1R,3s,5S)-9-azabicyclo[3.3.1]nonan-3-yl)(methyl)amino)pyridazin-3-yl)-5-(2H-1,2,3-triazol-2-yl)phenol], the IC50 (in assay [1]; in the assay on A-673 cells) was under 10 nM in each case. In addition, the EC50 in assay [1] is under 10 nM.
As for `Oc1cc(-c2cn[nH]c2)ccc1-c1ccc(O[C@H]2CC3CCC[C@@H](C2)N3)nn1` [compound 277, 2-(6-(((1R,3r,5S)-9-azabicyclo[3.3.1]nonan-3-yl)oxy)pyridazin-3-yl)-5-(1H-pyrazol-4-yl)phenol], in assay [1], the IC50 was over 1000 nM and the EC50 was over 1000 nM. Besides, the IC50 in the assay with A-673 cells was over 1000 nM.
For `CN(c1ccc(-c2ccc(-n3ccnn3)cc2O)nn1)[C@@H]1C[C@H]2CCC[C@@H](C1)N2` [compound 279, 2-(6-(((1R,3s,5S)-9-azabicyclo[3.3.1]nonan-3-yl)(methyl)amino)pyridazin-3-yl)-5-(1H-1,2,3-triazol-1-yl)phenol], in assay [1], the IC50 is under 10 nM and the EC50 was under 10 nM. For the same compound, the IC50 in the assay on A-673 cells lay in the range of 10 to 100 nM.
As for `[2H]C([2H])([2H])n1ncc(-c2ccc(-c3ccc(N(C)C4CC5CCCC(C4)N5)nn3)c(O)c2)cc1=O` [compound 281, 5-(4-(6-(((1R,3s,5S)-9-azabicyclo[3.3.1]nonan-3-yl)(methyl)amino)pyridazin-3-yl)-3-hydroxyphenyl)-2-(methyl-d3)pyridazin-3(2H)-one], in assay [1], the IC50 is under 10 nM and the concentration giving a half-maximal response (EC50) was under 10 nM. Besides, the IC50 with A-673 cells was under 10 nM.
